Reference: paper PMC3458928, “Co-Factor Binding Confers Substrate Specificity to Xylose Reductase from Debaryomyces hansenii” (PLoS ONE, 2012)
“And” between values parts separate entries of the source, which are not always exact repeats. Identical values can stand only once. Like-named read-outs stand apart in the source and are kept apart here.

Key:
[1] = biological target: apo-DhXR (wild type xylose reductase) (Debaryomyces hansenii, UniProt Q6BLI9); assay: Tryptophan fluorescence quenching titration, ligand binding to apo-DhXR wild type
Experimental: (§1) Titrations of DhXR with ligands were examined by monitoring the intrinsic tryptophan fluorescence of DhXR using a Varian spectrofluorometer. Experiments were performed in indicated buffers as mentioned in the text. The excitation wavelength and emission wavelengths for monitoring DhXR-ligand interaction were 292 nm and 345 nm respectively. Slit widths were set to 5 nm for all experiments and PMT voltage was adjusted to get maximum signal for a given protein concentration. All experiments were done at 25.0±1°C. Initial readings of both the protein, Fprotein,0 and buffer, Fbuff,0 were taken, with F0 = Fprotein,0–Fbuff,0 defined as the initial fluorescence of the sample. The sample cuvette was then titrated with aliquots of ligands and mixed, and equilibrated for 3–4 minutes before measurement. Data points from five such measurements were averaged to obtain Fave,i. The relative fluorescence quenching upon sugar binding is defined as Qobs,i = (F0–Fave,i)/F0. All measurements were corrected for dilution, and inner filter effects.
(§2) Binding of ligands to DhXR was analyzed using two site binding model. [drawing 1] (1) where Q1 and Q2 are the fluorescence quenching corresponding to one and two ligands bound, respectively; L is concentration of free ligand in solution; K1,obs and K2,obs are association constants for the binding of the first and the second ligand molecule. Errors were calculated from fitting analysis of two independent experiments.
We examined the binding of D-xylose, xylitol, and NADPH to apo-DhXR. Quenching of tryptophan fluorescence upon ligand binding was used as the signal for monitoring the extent of binding. Apo-DhXR was excited at 292 nm and emission of tryptophan fluorescence was scanned between 300–375 nm (Fig. S2). […] Intrinsic site-specific binding constants are estimated from the macroscopic binding constants obtained from fitting by removing the statistical factors as in eq (2). [drawing 2] (2)

holo-DhXR [2] = biological target: T1, holo-DhXR (Debaryomyces hansenii, UniProt Q6BLI9); assay: Specific activity of DhXR with 100 mM D-xylose in presence of competing sugars; assay type: biochemical
Experimental: (§3) The xylose reductase activities of recombinant DhXR was determined spectrophotometrically by monitoring the change in A340 upon reduction of NADPH to NADP. The standard assay mixture contained 50 mM KPO4, pH 7.0, 100 mM sugar substrate, 0.3 mM NADPH, 0.18 µM of enzyme. Single point activity studies were performed at 40°C and all reactions were started by the addition of enzyme to a final volume of 0.8 ml (in standard assay condition). […] Errors for the activity assays were calculated from triplicate experiments. The kinetic parameters were determined using a range of substrate concentrations. Here, the reaction was performed at 25°C and assay mixture contained 50 mM KPO4, pH 7.0, 0.15 mM NADPH, 0.18 µM of enzyme and varying substrate concentrations. Steady state kinetics data were fit to Michaelis-Menten model, v = Vmax * [S]/([S]+Km), where Vmax, maximal velocity; Km, Michaelis-Menten constant; S, substrate concentration, and v, initial velocity.
(§4) Assays were performed at 100 mM D-xylose and concentrations of competing sugars were varied (25 mM to 400 mM). […] Both DhXR and NADPH (20.0 µM) are pre-incubated and fluorescence signal was monitored until no further change. […] It should be noted that D-xylose is the substrate and is very likely to be reduced soon after binding.

DhXR H109A mutant = DhXR H109A mutant (Debaryomyces hansenii, UniProt Q6BLI9, H109A); assay: biochemical; assay type: binding
Experimental: as §1, §2
(§5) We tested the activity of all mutants and activities were normalized to the activity of wild type DhXR with respect to its D-xylose reducing activity.

DhXR K76A mutant = DhXR K76A mutant (Debaryomyces hansenii, UniProt Q6BLI9, K76A); assay: biochemical; assay type: binding
Experimental: as §1, §2, §5

DhXR Y47A mutant = DhXR Y47A mutant (Debaryomyces hansenii, UniProt Q6BLI9, Y47A); assay: biochemical; assay type: binding
Experimental: as §1, §2, §5

holo-DhXR [3] = biological target: T1, holo-DhXR; assay: Steady state kinetics of carbonyl substrate reduction by holo-DhXR (A340, NADPH); assay type: biochemical; conditions: for Vmax / k cat: 25 °C, pH 7.0, 0.15 mM NADPH, 0.18 µM enzyme; for Km/Kd ratio (net affinity loss): Km of holoenzyme vs Kd of apoenzyme; for catalysis in steady state kinetic curves (in words): comparison of kinetic curves of different sugars
Experimental: as §3
To understand the specificity determining component in catalysis, we studied the steady state kinetics of holo-DhXR towards different carbonyl substrates. […] Therefore, all kinetic data analyzed fitting to Michaelis-Menten model by Non-Linear Least Squares method. (Fig. 4A). Steady state kinetic parameters are also determined for other sugars (table 3, Fig. 4B). […] We compared the Km/Kd ratio as an indicator of net affinity loss for a given substrate (Fig. S5).
In order to further verify that holoenzyme discriminates between substrate and non-substrate sugars, we challenged the catalysis of D-xylose by adding non-substrate sugars during kinetic experiments. […] We studied the kinetics of D-xylose reduction by holo-DhXR in the presence of fixed concentration (∼40 mM) of three sugars (Fig. 4C).

DhXR-NADPH complex = assay: Fluorescence titration of pre-formed DhXR-NADPH binary complex; assay type: binding, Debaryomyces hansenii; conditions: DhXR pre-incubated with 20.0 µM NADPH
Experimental: as §1, §4

holo-DhXR [4] = biological target: T1, holo-DhXR; assay: Single point specific activity of holo-DhXR towards different sugars; assay type: biochemical; conditions: saturated sugar concentration (100 mM), 40 °C
Experimental: as §3

DhXR D10A mutant = biological target: T2, DhXR D10A mutant (Debaryomyces hansenii, UniProt Q6BLI9, D10A); assay: Fluorescence quenching titration, ligand binding to DhXR D10A mutant
T2 sequence (Q6BLI9 1-317 D10A): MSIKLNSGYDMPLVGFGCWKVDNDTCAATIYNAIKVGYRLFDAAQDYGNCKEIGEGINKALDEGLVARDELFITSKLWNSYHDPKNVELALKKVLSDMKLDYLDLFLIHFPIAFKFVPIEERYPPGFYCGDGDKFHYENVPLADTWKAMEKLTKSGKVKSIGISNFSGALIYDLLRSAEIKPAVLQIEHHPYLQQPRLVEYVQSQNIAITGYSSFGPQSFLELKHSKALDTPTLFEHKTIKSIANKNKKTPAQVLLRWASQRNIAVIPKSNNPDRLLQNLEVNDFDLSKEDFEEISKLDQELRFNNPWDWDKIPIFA
Experimental: as §1, §2, §5

DhXR N305A mutant = biological target: T3, DhXR N305A mutant (Debaryomyces hansenii, UniProt Q6BLI9, N305A); assay: Fluorescence quenching titration, ligand binding to DhXR N305A mutant
T3 sequence (Q6BLI9 1-317 N305A): T2 sequence (Q6BLI9 1-317 D10A)
Experimental: as §1, §2, §5

DhXR D42A mutant = biological target: T4, DhXR D42A mutant (Debaryomyces hansenii, UniProt Q6BLI9, D42A); assay: Fluorescence quenching titration, ligand binding to DhXR D42A mutant
T4 sequence (Q6BLI9 1-317 D42A): T2 sequence (Q6BLI9 1-317 D10A)
Experimental: as §1, §2, §5

[5] = substrate: O=C[C@H](O)[C@@H](O)[C@H](O)CO; assay: Steady state kinetics of carbonyl substrate reduction by holo-DhXR (A340, NADPH); assay type: biochemical, Debaryomyces hansenii; conditions: other: 25 °C, pH 7.0, 0.15 mM NADPH, 0.18 µM enzyme
[6] = Kd1,int, wild type apo-DhXR, first site, 25 °C
[7] = 25 mM sugar added in 100 mM D-xylose reaction
[8] = 100 mM sugar added in 100 mM D-xylose reaction
[9] = 400 mM sugar added in 100 mM D-xylose reaction
[10] = wild type apo-DhXR, first site, 25 °C, read-out: Kd1,int
[11] = wild type apo-DhXR, second site, 25 °C, read-out: Kd2,int

## O=C[C@H](O)[C@H](O)[C@H](O)CO [D-ribose]
[1]; [6]
  Kd: ~10.5 mM and 10.5 mM
[1]; first site, apo-DhXR
  fold less affinity than D-xylose: ~2 fold
[1]; read-out: Kd2,int, wild type apo-DhXR, second site, 25 °C
  Kd: 83 ± 7 mM
holo-DhXR [2]; [7]
  Specific activity: 77.5 ± 3.6 nmol/min
holo-DhXR [2]; [8]
  Specific activity: 84.7 ± 3.8 nmol/min
holo-DhXR [2]; [9]
  Specific activity: 78.5 ± 3.1 nmol/min
DhXR H109A mutant
  Kd: 13 ± 3 mM
DhXR K76A mutant
  Kd: 10 ± 2 mM
DhXR K76A mutant; K76A
  reduction in affinity versus wild type: 2 fold
DhXR Y47A mutant
  Kd: 12 ± 1 mM
DhXR Y47A mutant; Y47A, first site
  reduction in affinity versus wild type: ~2 fold
holo-DhXR [3]
  Vmax: 93.1 ± 3.2 nmol/min
  k cat: 10.3 s⁻¹
  Km/Kd ratio (net affinity loss): 12–15 fold

## C[C@H](O)[C@H](O)[C@@H](O)[C@@H](O)C=O [L-rhamnose]
[1]; [10]
  Kd: 14 ± 3 mM
[1]; [11]
  Kd: 33 ± 13 mM
DhXR-NADPH complex
  binding to DhXR-NADPH complex (fluorescence signal): cannot bind
holo-DhXR [4]
  reduction of holoenzyme activity compared with D-xylose: more than 95%
holo-DhXR [2]; [7]
  Specific activity: 76.2 ± 6.4 nmol/min
holo-DhXR [2]; [8]
  Specific activity: 73.4 ± 2.8 nmol/min
holo-DhXR [2]; [9]
  Specific activity: 68.7 ± 3.4 nmol/min
holo-DhXR [3]
  catalysis in steady state kinetic curves (in words): very low activity
holo-DhXR [3]; could not be estimated due to insignificant catalysis, minimum predicted
  Km/Kd ratio (net affinity loss), predicted minimum: > 500 fold

## O=C[C@H](O)[C@@H](O)[C@@H](O)[C@H](O)CO [D-galactose]
holo-DhXR [4]
  reduction of holoenzyme activity compared with D-xylose: 50%
holo-DhXR [2]; [7]
  Specific activity: 76.8 ± 3.8 nmol/min
holo-DhXR [2]; [8]
  Specific activity: 84.4 ± 3.3 nmol/min
holo-DhXR [2]; [9]
  Specific activity: 99.3 ± 4.3 nmol/min
DhXR Y47A mutant; Y47A, first site
  reduction in affinity versus wild type: 8–10 fold
holo-DhXR [3]
  Vmax: 136.5 ± 9.4 nmol/min
  k cat: 15.2 s⁻¹

## OC[C@@H](O)[C@H](O)[C@@H](O)CO [Xylitol, xylitol]
[1]; [10]
  Kd: 8.2 ± 1 mM

## OC[C@H]1O[C@@](CO)(O[C@H]2O[C@H](CO)[C@@H](O)[C@H](O)[C@H]2O)[C@@H](O)[C@@H]1O [Sucrose, sucrose]
[1]; [6]
  Kd: 7.3 ± 1 mM
[1]; Kd2,int, wild type apo-DhXR, second site, 25 °C
  Kd: 19 ± 5 mM
holo-DhXR [4]
  reduction of holoenzyme activity compared with D-xylose: more than 95%
DhXR H109A mutant
  Kd: 5 ± 0.2 mM
DhXR H109A mutant; H109A
  reduction in affinity versus wild type: no reduction
DhXR K76A mutant
  Kd: 10 ± 1 mM
DhXR Y47A mutant
  Kd: 11 ± 2 mM
DhXR Y47A mutant; Y47A, first site
  reduction in affinity versus wild type: ~2 fold

## NC(=O)C1=CN([C@@H]2O[C@H](COP(=O)(O)OP(=O)(O)OC[C@H]3O[C@@H](n4cnc5c(N)ncnc54)[C@H](OP(=O)(O)O)[C@@H]3O)[C@@H](O)[C@H]2O)C=CC1 [NADPH, Nicotinamide adenine dinucleotide phosphate]
[1]; Kd1,int, wild type apo-DhXR, first site, NADPH
  Kd: 0.0011 ± 0.0002 mM
[1]; affinity of first vs second ligand molecule
  ratio of first to second intrinsic binding constant: ~4
[1]; apoenzyme
  affinity of cofactor relative to substrate affinity: ~4700 times
[1]; read-out: Kd2,int, wild type apo-DhXR, second site, NADPH
  Kd: 0.0039 ± 0.0002 mM
[1]; wild type apo-DhXR
  K1,int (intrinsic association constant, first ligand): 8.9±0.4×10^5 M^−1
DhXR D10A mutant
  Kd: 0.0033 ± 0.0002 mM
DhXR D10A mutant; read-out: Kd2,int, D10A, second site, NADPH
  Kd: 0.01 ± 0.003 mM
DhXR N305A mutant
  Kd: 0.0083 ± 0.002 mM
DhXR N305A mutant; read-out: Kd2,int, N305A, second site, NADPH
  Kd: 0.09 ± 0.025 mM
DhXR D42A mutant
  Kd: 0.01 ± 0.0005 mM
DhXR H109A mutant
  Kd: 0.0055 ± 0.002 mM
DhXR H109A mutant; read-out: Kd2,int, H109A, second site, NADPH
  Kd: 0.083 ± 0.035 mM
DhXR K76A mutant
  Kd: 0.01 ± 0.0006 mM
DhXR Y47A mutant
  Kd: 0.01 ± 0.0007 mM
DhXR Y47A mutant; read-out: Kd2,int, Y47A, second site, NADPH
  Kd: 0.192 ± 0.026 mM

## D-arabinose
[1]; [10]
  Kd: 8.1 ± 1 mM
[1]; [11]
  Kd: 100 ± 10 mM
holo-DhXR [2]; [7]
  Specific activity: 69.4 ± 3.1 nmol/min
holo-DhXR [2]; [8]
  Specific activity: 68.2 ± 3.7 nmol/min
holo-DhXR [2]; [9]
  Specific activity: 66.5 ± 4.5 nmol/min
DhXR H109A mutant; H109A, first site, read-out: Kd1,int
  Kd: 28 ± 3 mM
DhXR K76A mutant; K76A, first site, read-out: Kd1,int
  Kd: 34 ± 4 mM
DhXR Y47A mutant; Y47A, first site
  reduction in affinity versus wild type: 8–10 fold
DhXR Y47A mutant; Y47A, first site, read-out: Kd1,int
  Kd: 66 ± 13 mM
holo-DhXR [3]
  Vmax: 127.2 ± 6.1 nmol/min
  k cat: 14.1 s⁻¹
  Km/Kd ratio (net affinity loss): ~220 fold
  catalysis in steady state kinetic curves (in words): very weakly hydrolyzed
holo-DhXR [3]; fold higher
  Km relative to that of D-xylose: 22 fold

B1: holo-DhXR (Debaryomyces hansenii CBS767) (protein)
chain: T2 sequence (Q6BLI9 1-317 D10A)
[5]
  Km: 81 ± 6 mM
  Vmax: 0.185 µmol/min
  kcat: 20.6 s⁻¹
  kcat/Km: 254 M⁻¹ s⁻¹
